# Reference: patent EP2457916A1, “Compound for the covalent attachment of the chemiluminescent probe N-(4-Aminobutyl)-N-ethylisoluminol (ABEI) to target molecules and uses thereof” (DiaSorin S.p.A., priority 2010, dated 2012)
# Assay: Stability of compound (1a) dissolved in organic solvents, formation of the hydrolysis product (ABEI-glutaric acid) monitored by HPLC
# Assay type: physicochemical
# Procedure: The stability of compound (1a) dissolved in organic solvents (DMSO, acetonitrile) was evaluated at two different storage temperatures, -30°C and +4°C, by monitoring the formation of the hydrolysis product (ABEI-glutaric acid) using a chromatographic HPLC system.
# Within the limits of reproducibility of the experimental determination, less than 2% of compound (1a) was hydrolysed to glutaric acid after 270 days at -30°C (Fig. 9), while less than 7% of compound (1a) was hydrolysed to acid at +4°C after 38 days (Fig. 10). This compares to the reported high instability of equivalent NHS esters which have half-lives of hours under physiological pH conditions. At 0°C and at pH 7, the half-life is typically 4-5 h [Lomant, A.J., Fairbanks, G. J. Mol. Biol. 1976, 104, 243-261], at pH 8.6 and 4°C this falls to only 10 min [Cuatrecaseas, P., Parikh, I. Biochemistry 1972, 11, 2291-2299].
substance,measurement,setting,value
N-(4-Aminobutyl)-N-ethylisoluminol anhydroglutarate [compound (1a)],compound (1a) hydrolysed to glutaric acid,"solution (DMSO), after 270 days at -30°C (Fig. 9)",less than 2%
same,compound (1a) hydrolysed to acid,"solution (DMSO), at +4°C after 38 days (Fig. 10)",less than 7%
same,stability of solution (in DMSO),stored at from +4°C to -30°C,highly stable
